Experimental data as given in patent publication US20250100995A1, “CEREBLON BINDING COMPOUNDS, COMPOSITIONS THEREOF, AND METHODS OF TREATMENT THEREWITH” (CELGENE CORPORATION, priority 2021, published 2025).
Counter-ions that a name gives are not always drawn.

Target: T1, AR (Homo sapiens, UniProt P10275)
T1 construct: endogenous in cells; host or cells: VCaP cells
T1 sequence (P10275 1-920): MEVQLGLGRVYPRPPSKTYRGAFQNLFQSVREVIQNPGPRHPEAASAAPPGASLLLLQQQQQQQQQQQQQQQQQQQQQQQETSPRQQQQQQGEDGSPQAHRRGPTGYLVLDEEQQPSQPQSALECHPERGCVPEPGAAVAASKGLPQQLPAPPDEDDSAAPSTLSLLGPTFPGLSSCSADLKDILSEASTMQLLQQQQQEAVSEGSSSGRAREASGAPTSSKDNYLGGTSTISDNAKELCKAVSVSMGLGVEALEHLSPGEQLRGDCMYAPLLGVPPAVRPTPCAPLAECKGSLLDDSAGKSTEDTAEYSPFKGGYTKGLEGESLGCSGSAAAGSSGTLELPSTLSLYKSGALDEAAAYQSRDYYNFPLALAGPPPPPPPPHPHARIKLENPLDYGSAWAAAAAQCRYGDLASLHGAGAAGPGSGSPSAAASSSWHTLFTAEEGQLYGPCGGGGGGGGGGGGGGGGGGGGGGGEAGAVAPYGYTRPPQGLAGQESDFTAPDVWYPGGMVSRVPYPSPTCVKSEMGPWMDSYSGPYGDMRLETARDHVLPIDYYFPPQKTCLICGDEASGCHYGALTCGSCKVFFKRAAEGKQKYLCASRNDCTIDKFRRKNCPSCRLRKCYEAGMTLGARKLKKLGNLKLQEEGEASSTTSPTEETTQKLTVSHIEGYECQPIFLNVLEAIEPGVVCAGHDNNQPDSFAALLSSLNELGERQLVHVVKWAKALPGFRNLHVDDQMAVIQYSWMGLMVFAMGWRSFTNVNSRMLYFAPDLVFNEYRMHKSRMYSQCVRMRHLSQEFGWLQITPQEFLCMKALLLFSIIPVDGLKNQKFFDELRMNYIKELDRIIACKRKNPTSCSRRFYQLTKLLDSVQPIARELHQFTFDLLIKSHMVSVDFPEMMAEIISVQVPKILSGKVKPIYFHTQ
Test: VCAP AR Degradation Assay
Type: cell-based
Settings: VCaP cells, 24 h, AR ELISA; for DC50: concentration of compound when AR level = 50% of DMSO control; for Y: lowest measured AR level normalized to DMSO control (AR degradation efficiency)
Procedure: VCAP AR Degradation Assay. Test compounds were pre-dispensed into a Corning CellBind 96-well clear bottom plate (Cat #3300) using an acoustic dispenser to make a 10-point concentration series at 1:3 dilution for each compound. The final top concentration of each compound was 5 μM. DMSO at a final concentration of 0.1% was used as a control. VCaP cells cultured in DMEM with 8% fetal bovine serum (FBS) were seeded at 50K cells per well in a 200 μL volume into the compound plate and incubated at 37° C. in a CO2 incubator for 24 h. The medium was carefully removed from the cells and the plate was placed on ice. One hundred μL of ice-cold 1× cell lysis buffer from Cell Signaling Technologies (Cat #9803) was added to each well of the cells and the plate was incubated at 4° C. on a shaker for 1 h. Fifteen μL of cell lysate was used for AR ELISA detection using a PathScan Total Sandwich AR ELISA kit (Cell Signaling Technology, Cat #12580). AR levels in compound-treated wells were normalized to that of DMSO control and expressed as percent of control (PoC) (y). A Four Parameter Logistic Model (Sigmoidal Dose-Response Model) was used to determine the compound's DC50, and EC50, using the following equation: […]
The lowest measured AR level normalized to DMSO control in response to compound treatment, termed Y value, was used to characterize the compound-mediated AR degradation efficiency.

SMILES	DC50 [nM]	Y
C[C@@H]1CN(CCO[C@H]2CC[C@H](N3C(=S)N(c4ccc(C#N)c(C(F)(F)F)c4)C(=O)C3(C)C)CC2)C[C@H](C)N1CCCOc1cc(C2CCC(=O)NC2=O)ccn1 (stereo partly drawn) [Cmpd 16, 4-(3-(trans-4-(2-((3R,5S)-4-(3-((4-(2,6-Dioxopiperidin-3-yl)pyridin-2-yl)oxy)propyl)-3,5-dimethylpiperazin-1-yl)ethoxy)cyclohexyl)-4,4-dimethyl-5-oxo-2-thioxoimidazolidin-1-yl)-2-(trifluoromethyl)benzonitrile hydrochloride]	50 to 200	*** (40%<Y<80%)
C[C@@H]1CN(CCCC[C@H]2CC[C@H](N3C(=S)N(c4ccc(C#N)c(C(F)(F)F)c4)C(=O)C3(C)C)CC2)C[C@H](C)N1CC(=O)Nc1cc(N2CCC(=O)NC2=O)ccn1 [Cmpd 17, 2-((2R,6S)-4-(4-((trans)-4-(3-(4-Cyano-3-(trifluoromethyl)phenyl)-5,5-dimethyl-4-oxo-2-thioxoimidazolidin-1-yl)cyclohexyl)butyl)-2,6-dimethylpiperazin-1-yl)-N-(4-(2,4-dioxotetrahydropyrimidin-1(2H)-yl)pyridin-2-yl)acetamide]	5 to 50	** (20%<Y≤40%)
C[C@@H]1CN(CCCC[C@H]2CC[C@H](N3C(=S)N(c4ccc(C#N)c(C(F)(F)F)c4)C(=O)C3(C)C)CC2)C[C@H](C)N1CC(=O)Nc1ccc(N2CCC(=O)NC2=O)cn1 [Cmpd 18, 2-((2R,6S)-4-(4-((trans)-4-(3-(4-Cyano-3-(trifluoromethyl)phenyl)-5,5-dimethyl-4-oxo-2-thioxoimidazolidin-1-yl)cyclohexyl)butyl)-2,6-dimethylpiperazin-1-yl)-N-(5-(2,4-dioxotetrahydropyrimidin-1(2H)-yl)pyridin-2-yl)acetamide]	5 to 50	** (20%<Y≤40%)
C[C@@H]1CN(CCCC[C@H]2CC[C@H](N3C(=S)N(c4ccc(C#N)c(C(F)(F)F)c4)C(=O)C3(C)C)CC2)C[C@H](C)N1CC(=O)Nc1ccc(C2CCC(=O)NC2=O)cn1 (stereo partly drawn) [Cmpd 19, 2-((2R,6S)-4-(4-((trans)-4-(3-(4-Cyano-3-(trifluoromethyl)phenyl)-5,5-dimethyl-4-oxo-2-thioxoimidazolidin-1-yl)cyclohexyl)butyl)-2,6-dimethylpiperazin-1-yl)-N-(5-(2,6-dioxopiperidin-3-yl)pyridin-2-yl)acetamide]	≤ 5	* (0<Y≤20%)
CC1(C)C(=O)N(c2ccc(C#N)c(C(F)(F)F)c2)C(=S)N1[C@H]1CC[C@H](CCCN2CCN(CC(=O)Nc3cc(C4CCC(=O)NC4=O)ccn3)[C@@H](C(F)(F)F)C2)CC1 (stereo partly drawn) [Cmpd 20, 2-((R)-4-(3-((trans)-4-(3-(4-Cyano-3-(trifluoromethyl)phenyl)-5,5-dimethyl-4-oxo-2-thioxoimidazolidin-1-yl)cyclohexyl)propyl)-2-(trifluoromethyl)piperazin-1-yl)-N-(4-(2,6-dioxopiperidin-3-yl)pyridin-2-yl)acetamide]	5 to 50	** (20%<Y≤40%)
CC1(C)C(=O)N(c2ccc(C#N)c(C(F)(F)F)c2)C(=S)N1[C@H]1CC[C@H](OCCN2CCN(CC(=O)Nc3cc(C4CCC(=O)NC4=O)ccn3)[C@@H](C(F)(F)F)C2)CC1 (stereo partly drawn) [Cmpd 21, 2-((R)-4-(2-(((trans)-4-(3-(4-Cyano-3-(trifluoromethyl)phenyl)-5,5-dimethyl-4-oxo-2-thioxoimidazolidin-1-yl)cyclohexyl)oxy)ethyl)-2-(trifluoromethyl)piperazin-1-yl)-N-(4-(2,6-dioxopiperidin-3-yl)pyridin-2-yl)acetamide]	5 to 50	* (0<Y≤20%)
CC1(C)C(=O)N(c2cnc(C#N)c(C(F)(F)F)c2)C(=S)N1[C@H]1CC[C@H](OCCN2CCN(CC(=O)Nc3cc(C4CCC(=O)NC4=O)ccn3)[C@@H](C(F)(F)F)C2)CC1 (stereo partly drawn) [Cmpd 22, 2-((R)-4-(2-(((trans)-4-(3-(6-Cyano-5-(trifluoromethyl)pyridin-3-yl)-5,5-dimethyl-4-oxo-2-thioxoimidazolidin-1-yl)cyclohexyl)oxy)ethyl)-2-(trifluoromethyl)piperazin-1-yl)-N-(4-(2,6-dioxopiperidin-3-yl)pyridin-2-yl)acetamide]	≤ 5	* (0<Y≤20%)
CC1(C)C(=O)N(c2cnc(C#N)c(C(F)(F)F)c2)C(=S)N1[C@H]1CC[C@H](CCCN2CCN(CC(=O)Nc3cc(C4CCC(=O)NC4=O)ccn3)[C@@H](C(F)(F)F)C2)CC1 (stereo partly drawn) [Cmpd 23, 2-((R)-4-(3-((trans)-4-(3-(6-Cyano-5-(trifluoromethyl)pyridin-3-yl)-5,5-dimethyl-4-oxo-2-thioxoimidazolidin-1-yl)cyclohexyl)propyl)-2-(trifluoromethyl)piperazin-1-yl)-N-(4-(2,6-dioxopiperidin-3-yl)pyridin-2-yl)acetamide]	5 to 50	* (0<Y≤20%)
CC1(C)C(=O)N(c2ccc(C#N)c(C(F)(F)F)c2)C(=S)N1[C@H]1CC[C@H](OCCCN2CCN(CC(=O)Nc3cc(C4CCC(=O)NC4=O)ccn3)[C@@H](C(F)(F)F)C2)CC1 (stereo partly drawn) [Cmpd 24, 2-((R)-4-(3-(((trans)-4-(3-(4-Cyano-3-(trifluoromethyl)phenyl)-5,5-dimethyl-4-oxo-2-thioxoimidazolidin-1-yl)cyclohexyl)oxy)propyl)-2-(trifluoromethyl)piperazin-1-yl)-N-(4-(2,6-dioxopiperidin-3-yl)pyridin-2-yl)acetamide]	≤ 5	* (0<Y≤20%)
CC1(C)C(=O)N(c2cnc(C#N)c(C(F)(F)F)c2)C(=S)N1[C@H]1CC[C@H](OCCCN2CCN(CC(=O)Nc3cc(C4CCC(=O)NC4=O)ccn3)[C@@H](C(F)(F)F)C2)CC1 (stereo partly drawn) [Cmpd 25, 2-((R)-4-(3-(((trans)-4-(3-(6-Cyano-5-(trifluoromethyl)pyridin-3-yl)-5,5-dimethyl-4-oxo-2-thioxoimidazolidin-1-yl)cyclohexyl)oxy)propyl)-2-(trifluoromethyl)piperazin-1-yl)-N-(4-(2,6-dioxopiperidin-3-yl)pyridin-2-yl)acetamide]	≤ 5	* (0<Y≤20%)
C[C@@H]1C[C@H](OCCO[C@H]2CC[C@H](N3C(=S)N(c4cnc(C#N)c(C(F)(F)F)c4)C(=O)C3(C)C)CC2)C[C@H](C)N1CC(=O)Nc1cc(C2CCC(=O)NC2=O)ccn1 (stereo partly drawn) [Cmpd 26, 2-((2R,4r,6S)-4-(2-(((trans)-4-(3-(6-Cyano-5-(trifluoromethyl)pyridin-3-yl)-5,5-dimethyl-4-oxo-2-thioxoimidazolidin-1-yl)cyclohexyl)oxy)ethoxy)-2,6-dimethylpiperidin-1-yl)-N-(4-(2,6-dioxopiperidin-3-yl)pyridin-2-yl)acetamide]	≤ 5	** (20%<Y≤40%)
C[C@@H]1C[C@H](OCC[C@H]2CC[C@H](N3C(=S)N(c4ccc(C#N)c(C(F)(F)F)c4)C(=O)C3(C)C)CC2)C[C@H](C)N1CC(=O)Nc1cc(C2CCC(=O)NC2=O)ccn1 (stereo partly drawn) [Cmpd 27, 2-((2R,4r,6S)-4-(2-((trans)-4-(3-(4-Cyano-3-(trifluoromethyl)phenyl)-5,5-dimethyl-4-oxo-2-thioxoimidazolidin-1-yl)cyclohexyl)ethoxy)-2,6-dimethylpiperidin-1-yl)-N-(4-(2,6-dioxopiperidin-3-yl)pyridin-2-yl)acetamide]	5 to 50	** (20%<Y≤40%)
C[C@@H]1C[C@H](OCCC[C@H]2CC[C@H](N3C(=S)N(c4ccc(C#N)c(C(F)(F)F)c4)C(=O)C3(C)C)CC2)C[C@H](C)N1CC(=O)Nc1cc(C2CCC(=O)NC2=O)ccn1 (stereo partly drawn) [Cmpd 28, 2-((2R,4r,6S)-4-(3-((trans)-4-(3-(4-Cyano-3-(trifluoromethyl)phenyl)-5,5-dimethyl-4-oxo-2-thioxoimidazolidin-1-yl)cyclohexyl)propoxy)-2,6-dimethylpiperidin-1-yl)-N-(4-(2,6-dioxopiperidin-3-yl)pyridin-2-yl)acetamide]	5 to 50	** (20%<Y≤40%)
